Data reported in PubChem BioAssay AID2060600 (Molecular Pharmacology Branch, DTP, NCI, 2025).

System: 996289-038-R-J1-PDC complex spheroid viability
Assay: Anticancer human tumor 996289-038-R-J1-PDC patient-derived colon adenocarcinoma cell line growth inhibition [CLK]
Details: for IC50: curve of first compound; for viability, T/C: stronger effect = lower value
In short: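 Patient-derived tumor cells grown as complex spheroids with HUVEC endothelial cells and mesenchymal stem cells, treated with drug combinations. Concentrations descend in half-log steps from near clinical Cmax, or from 10 microM if Cmax unknown.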

[1] = second compound 0.0316 µM, first compound 0.0316 µM
[2] = second compound 0.0316 µM, first compound 0.1 µM
[3] = second compound 0.0316 µM, first compound 0.316 µM
[4] = second compound 0.0316 µM, first compound 1 µM
[5] = second compound 0.0316 µM, first compound 3.16 µM
[6] = second compound 0.0316 µM, first compound 10 µM
[7] = second compound 0.1 µM, first compound 0.0316 µM
[8] = second compound 0.1 µM, first compound 0.1 µM
[9] = second compound 0.1 µM, first compound 0.316 µM
[10] = second compound 0.1 µM, first compound 1 µM
[11] = second compound 0.1 µM, first compound 3.16 µM
[12] = second compound 0.1 µM, first compound 10 µM
[13] = second compound 0.316 µM, first compound 0.0316 µM
[14] = second compound 0.316 µM, first compound 0.1 µM
[15] = second compound 0.316 µM, first compound 0.316 µM
[16] = second compound 0.316 µM, first compound 1 µM
[17] = second compound 0.316 µM, first compound 3.16 µM
[18] = second compound 0.316 µM, first compound 10 µM
[19] = second compound 1 µM, first compound 0.0316 µM
[20] = second compound 1 µM, first compound 0.1 µM
[21] = second compound 1 µM, first compound 0.316 µM
[22] = second compound 1 µM, first compound 1 µM
[23] = second compound 1 µM, first compound 3.16 µM
[24] = second compound 1 µM, first compound 10 µM
[25] = second compound 3.16 µM, first compound 0.0316 µM
[26] = second compound 3.16 µM, first compound 0.1 µM
[27] = second compound 3.16 µM, first compound 0.316 µM
[28] = second compound 3.16 µM, first compound 1 µM
[29] = second compound 3.16 µM, first compound 3.16 µM
[30] = second compound 3.16 µM, first compound 10 µM
[31] = second compound 10 µM, first compound 0.0316 µM
[32] = second compound 10 µM, first compound 0.1 µM
[33] = second compound 10 µM, first compound 0.316 µM
[34] = second compound 10 µM, first compound 1 µM
[35] = second compound 10 µM, first compound 3.16 µM
[36] = second compound 10 µM, first compound 10 µM
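Note: spheroids exposed to the agents for 7 days before readout.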

**Q.** Which IC50 (second compound 0.0316 µM) does the source give for `COc1cccc2c1C(=O)c1c(O)c3c(c(O)c1C2=O)CC(O)(C(=O)CO)CC3OC1CC(N)C(O)C(C)O1` (centres undefined) + CN1CCN(c2cc(C(=O)Nc3cc4cc(-c5cnn(C)c5)ccc4cn3)ccn2)CC1 here?
**A.** 1400 nM

**Q.** What about the IC50 (second compound 0.1 µM) of the same compound?
**A.** 775 nM

**Q.** What about the IC50 (second compound 0.316 µM) of the same compound?
**A.** 218 nM

**Q.** And the IC50 (second compound 1 µM)?
**A.** < 31.6 nM

**Q.** And the IC50 (second compound 3.16 µM)?
**A.** < 31.6 nM

**Q.** And the IC50 (second compound 10 µM)?
**A.** < 31.6 nM

**Q.** And the viability, T/C [1]?
**A.** 89.6%

**Q.** What about the viability, T/C [2] of the same compound?
**A.** 91.8%

**Q.** What about the viability, T/C [3] of the same compound?
**A.** 71.9%

**Q.** What about the viability, T/C [4] of the same compound?
**A.** 52.5%

**Q.** What about the viability, T/C [5] of the same compound?
**A.** 45.2%

**Q.** What about the viability, T/C [6] of the same compound?
**A.** 33.8%

**Q.** And the viability, T/C [7]?
**A.** 89.3%

**Q.** And the viability, T/C [8]?
**A.** 83.5%

**Q.** What about the viability, T/C [9] of the same compound?
**A.** 60.2%

**Q.** And the viability, T/C [10]?
**A.** 44.5%

**Q.** And the viability, T/C [11]?
**A.** 40.6%

**Q.** What about the viability, T/C [12] of the same compound?
**A.** 26.3%

**Q.** And the viability, T/C [13]?
**A.** 67.8%

**Q.** What about the viability, T/C [14] of the same compound?
**A.** 56.9%

**Q.** And the viability, T/C [15]?
**A.** 42.1%

**Q.** What about the viability, T/C [16] of the same compound?
**A.** 38.6%

**Q.** And the viability, T/C [17]?
**A.** 33.6%

**Q.** What about the viability, T/C [18] of the same compound?
**A.** 16.1%

**Q.** And the viability, T/C [19]?
**A.** 4.05%

**Q.** What about the viability, T/C [20] of the same compound?
**A.** 4.33%

**Q.** And the viability, T/C [21]?
**A.** 4.01%

**Q.** What about the viability, T/C [22] of the same compound?
**A.** 3.89%

**Q.** What about the viability, T/C [23] of the same compound?
**A.** 4.94%

**Q.** What about the viability, T/C [24] of the same compound?
**A.** 7.17%

**Q.** And the viability, T/C [25]?
**A.** 0.81%

**Q.** What about the viability, T/C [26] of the same compound?
**A.** 1.53%

**Q.** And the viability, T/C [27]?
**A.** 2.41%

**Q.** What about the viability, T/C [28] of the same compound?
**A.** 2.9%

**Q.** And the viability, T/C [29]?
**A.** 5.23%

**Q.** And the viability, T/C [30]?
**A.** 5.47%

**Q.** And the viability, T/C [31]?
**A.** 1.39%

**Q.** What about the viability, T/C [32] of the same compound?
**A.** 0.35%

**Q.** What about the viability, T/C [33] of the same compound?
**A.** 0.5%

**Q.** And the viability, T/C [34]?
**A.** 0.45%

**Q.** What about the viability, T/C [35] of the same compound?
**A.** 0.53%

**Q.** What about the viability, T/C [36] of the same compound?
**A.** 0.61%

**Q.** With `C=C(F)C(=O)N1CCN(c2nc(OCC3CCCN3C)nc3c2CCN(c2cccc4cccc(Cl)c24)C3)CC1CC#N` (centres undefined) + CNC(=O)c1ccc(Nc2nc(OC3CCCC3)c3c(-c4ccc5nc(C)oc5c4)c[nH]c3n2)c(OC)c1 as the compound, how does the IC50 (second compound 0.0316 µM) read?
**A.** 5200 nM

**Q.** What about the IC50 (second compound 0.1 µM) of the same compound?
**A.** 4820 nM

**Q.** What about the IC50 (second compound 0.316 µM) of the same compound?
**A.** 3790 nM

**Q.** And the IC50 (second compound 1 µM)?
**A.** 2280 nM

**Q.** What about the IC50 (second compound 3.16 µM) of the same compound?
**A.** 1500 nM

**Q.** And the IC50 (second compound 10 µM)?
**A.** 1400 nM

**Q.** What about the viability, T/C [1] of the same compound?
**A.** 127%

**Q.** And the viability, T/C [2]?
**A.** 129%

**Q.** And the viability, T/C [3]?
**A.** 116%

**Q.** And the viability, T/C [4]?
**A.** 121%

**Q.** What about the viability, T/C [5] of the same compound?
**A.** 86.7%

**Q.** What about the viability, T/C [6] of the same compound?
**A.** 1.33%

**Q.** What about the viability, T/C [7] of the same compound?
**A.** 116%

**Q.** What about the viability, T/C [8] of the same compound?
**A.** 115%

**Q.** And the viability, T/C [9]?
**A.** 106%

**Q.** And the viability, T/C [10]?
**A.** 107%

**Q.** What about the viability, T/C [11] of the same compound?
**A.** 77.9%

**Q.** And the viability, T/C [12]?
**A.** 1%

**Q.** And the viability, T/C [13]?
**A.** 75.2%

**Q.** And the viability, T/C [14]?
**A.** 72.2%

**Q.** What about the viability, T/C [15] of the same compound?
**A.** 72.6%

**Q.** What about the viability, T/C [16] of the same compound?
**A.** 75.7%

**Q.** And the viability, T/C [17]?
**A.** 57.4%

**Q.** What about the viability, T/C [18] of the same compound?
**A.** 2.02%

**Q.** What about the viability, T/C [19] of the same compound?
**A.** 62.9%

**Q.** What about the viability, T/C [20] of the same compound?
**A.** 62.9%

**Q.** What about the viability, T/C [21] of the same compound?
**A.** 59.9%

**Q.** And the viability, T/C [22]?
**A.** 64.7%

**Q.** What about the viability, T/C [23] of the same compound?
**A.** 45.1%

**Q.** And the viability, T/C [24]?
**A.** 0.61%

**Q.** What about the viability, T/C [25] of the same compound?
**A.** 59.8%

**Q.** What about the viability, T/C [26] of the same compound?
**A.** 59.4%

**Q.** What about the viability, T/C [27] of the same compound?
**A.** 56.5%

**Q.** What about the viability, T/C [28] of the same compound?
**A.** 56.8%

**Q.** And the viability, T/C [29]?
**A.** 38.2%

**Q.** What about the viability, T/C [30] of the same compound?
**A.** 1.01%

**Q.** What about the viability, T/C [31] of the same compound?
**A.** 61.9%

**Q.** What about the viability, T/C [32] of the same compound?
**A.** 59%

**Q.** What about the viability, T/C [33] of the same compound?
**A.** 56.2%

**Q.** What about the viability, T/C [34] of the same compound?
**A.** 57.2%

**Q.** What about the viability, T/C [35] of the same compound?
**A.** 33.5%

**Q.** And the viability, T/C [36]?
**A.** 0.31%
